In ChEMBL document CHEMBL4840311, “Discovery of novel nitrogenous heterocyclic-containing quinoxaline-1,4-di-N-oxides as potent activator of autophagy in M.tb-infected macrophages” (Eur J Med Chem, 2021):
Values after ≈ are worked out from the molar mass of the structure shown. Active and inactive are the calls of the source. The rule behind the calls is not given here.

Columns and labels:
Vero = test: Cytotoxicity against African green monkey Vero cells assessed as reduction in cell viability measured after 72 hrs by MTT assay; assay type: cell-based; conditions: Chlorocebus sabaeus
[1] = tested on: Mycobacterium tuberculosis; test: Antimycobacterial activity against Mycobacterium tuberculosis H37Rv ATCC 27294 assessed as inhibition of bacterial growth measured after 5 days by microplate alamar blue assay; assay type: functional; conditions: H37Rv ATCC 27294, 120 h, time 5 day
[2] = Selectivity index, ratio of IC50 for African green monkey Vero cells measured after 72 hrs by MTT assay to MIC for antimycobacterial activity against Mycobacterium tuberculosis H37Rv ATCC 27294 assessed as inhibition of bacterial growth measured after 5 days by microplate alamar blue assay; assay type: toxicity; conditions: read-out: Selectivity Index
[3] = Half life in Wistar rat at 2.5 mg/kg, im measured for 48 hrs by HPLC method; assay type: ADME, organism-based; conditions: in vivo
J774.A1 [4] = test: Cytotoxicity against mouse J774.A1 cells assessed as reduction in cell viability measured after 72 hrs by MTT assay; assay type: cell-based; conditions: J774.A1, 72 h
[5] = AUC (0 to infinity) in Wistar rat at 2.5 mg/kg, im by HPLC method; assay type: ADME, organism-based; design: time infinity, route intramuscular, dose 2.5 mg/kg; conditions: in vivo
[6] = Cmax in Wistar rat at 2.5 mg/kg, im measured for 48 hrs by HPLC method; assay type: ADME, organism-based; design: route intramuscular, dose 2.5 mg/kg, time 48 hrs; conditions: in vivo
[7] = AUC (0 to t) in Wistar rat at 2.5 mg/kg, im measured for 48 hrs by HPLC method; assay type: ADME, organism-based; design: dose 2.5 mg/kg, time 48 hrs; conditions: in vivo
[8] = tested on: Mycobacterium tuberculosis; test: Antimycobacterial activity against Mycobacterium tuberculosis H37Rv infected in mouse J774.A1 cells assessed as log reduction of bacterial growth at 1X MIC measured after 4 days by visual colony counting analysis; assay type: functional; conditions: time 4 day
[9] = tested on: Mycobacterium tuberculosis; test: Antimycobacterial activity against Mycobacterium tuberculosis H37Rv infected in mouse J774.A1 cells assessed as log reduction of bacterial growth at 20X MIC measured after 4 days by visual colony counting analysis; assay type: functional; conditions: time 4 day
J774.A1 [10] = test: Activation of autophagy in mouse J774.A1 cells infected with Mycobacterium tuberculosis H37Rv assessed as increase in LC3 accumulation at 2.5 to 5 ug/ml measured after 24 hrs by immunofluorescence staining analysis; assay type: functional, cell-based; conditions: dose 2.5-5 µg/ml
[11] = Toxicity in Wistar rat assessed as abnormal behaviour at 2.5 mg/kg, im measured for 48 hrs; assay type: organism-based; conditions: in vivo
J774.A1 [12] = test: Induction of cytoplasmic ROS generation in mouse J774.A1 cells at 2.5 ug/ml measured after 24 hrs by DCFH-DA staining based flow cytometry assay; assay type: functional, cell-based; conditions: dose 2.5 µg/ml
J774.A1 [13] = test: Induction of mitochondrial ROS generation in mouse J774.A1 cells at 2.5 ug/ml measured after 24 hrs by DCFH-DA staining based flow cytometry assay; assay type: functional, cell-based; conditions: dose 2.5 µg/ml
J774.A1 [14] = test: Activation of autophagy in mouse J774.A1 cells assessed as LC3-II expression by measuring ratio of LC3-II to LC3-I measured after 24 hrs by Western blot assay (reference value: 1.04); assay type: functional
J774.A1 [15] = test: Activation of autophagy in mouse J774.A1 cells assessed as LC3 accumulation measured after 24 hrs by immunofluorescence staining analysis; assay type: functional, cell-based
J774.A1 [16] = test: Induction of mitochondrial ROS generation in mouse J774.A1 cells infected with Mycobacterium tuberculosis H37Rv at 2.5 ug/ml measured after 24 hrs by Mito-SOX staining based flow cytometry assay; assay type: functional, cell-based; conditions: dose 2.5 µg/ml
Cell membrane [17] = test: Disruption on membrane integrity in Mycobacterium tuberculosis assessed as red fluorescence at 2X to 4X MIC measured after 24 hrs by SYTO 9/PI staining based inverted flourescence microscopy method
[18] = tested on: Mycobacterium tuberculosis; test: Antimycobacterial activity against Mycobacterium tuberculosis H37Rv infected in mouse J774.A1 cells assessed as log reduction of bacterial growth at 40X MIC measured after 4 days by visual colony counting analysis; assay type: functional; conditions: time 4 day
[19] = Tmax in Wistar rat at 2.5 mg/kg, im measured for 48 hrs by HPLC method; assay type: ADME, organism-based; conditions: in vivo
[20] = tested on: Mycobacterium tuberculosis; test: Antimycobacterial activity against Mycobacterium tuberculosis H37Rv infected in mouse J774.A1 cells assessed as log reduction of bacterial growth at 1X to 40X MIC measured after 1 day by visual colony counting analysis; assay type: functional
[21] = tested on: Mycobacterium tuberculosis; test: Antimycobacterial activity against Mycobacterium tuberculosis H37Rv infected in mouse J774.A1 cells assessed as log reduction of bacterial growth at 10X MIC measured after 4 days by visual colony counting analysis; assay type: functional; conditions: time 4 day
J774.A1 [22] = test: Activation of autophagy in mouse J774.A1 cells infected with Mycobacterium tuberculosis H37Rv assessed as increase of LC3-II expression by measuring ratio of LC3-II to LC3-I at 5 ug/ml measured after 24 hrs by Western blot assay (reference value: 1.18); assay type: functional; conditions: dose 5 µg/ml
J774.A1 [23] = test: Activation of autophagy in mouse J774.A1 cells infected with Mycobacterium tuberculosis H37Rv assessed as increase of LC3-II expression by measuring ratio of LC3-II to LC3-I at 1 ug/ml measured after 24 hrs by Western blot assay (reference value: 1.18); assay type: functional; conditions: dose 1 µg/ml
J774.A1 [24] = test: Induction of cytoplasmic ROS generation in mouse J774.A1 cells infected with Mycobacterium tuberculosis H37Rv at 2.5 ug/ml measured after 24 hrs by DCFH-DA staining based flow cytometry assay; assay type: functional, cell-based; conditions: dose 2.5 µg/ml
[25] = MRT (0 to infinity) in Wistar rat at 2.5 mg/kg, im by HPLC method; assay type: ADME, organism-based; conditions: in vivo
[26] = MRT (0 to t) in Wistar rat at 2.5 mg/kg, im measured for 48 hrs by HPLC method; assay type: ADME, organism-based; conditions: in vivo
Cell membrane [27] = test: Disruption of membrane integrity Mycobacterium tuberculosis H37Rv assessed as disturbance in energy homeostasis by measuring reduction in ATP content at 0.125 to 2.5 ug/ml measured after 24 hrs by luciferase based bioluminescence assay; conditions: dose 0.125-2.5 µg/ml
J774.A1 [28] = test: Activation of autophagy in mouse J774.A1 cells infected with Mycobacterium tuberculosis H37Rv assessed as increase of LC3-II expression by measuring ratio of LC3-II to LC3-I at 2.5 ug/ml measured after 24 hrs by Western blot assay (reference value: 1.18); assay type: functional; conditions: dose 2.5 µg/ml
[29] = tested on: Mycobacterium tuberculosis; test: Antimycobacterial activity against Mycobacterium tuberculosis H37Rv infected in mouse J774.A1 cells assessed as log reduction of bacterial growth at 10X MIC measured after 1 days by visual colony counting analysis; assay type: functional; conditions: time 1 day
[30] = tested on: Mycobacterium tuberculosis; test: Antimycobacterial activity against Mycobacterium tuberculosis H37Rv infected in mouse J774.A1 cells assessed as log reduction of bacterial growth at 1X MIC measured after 1 days by visual colony counting analysis; assay type: functional; conditions: time 1 day
[31] = tested on: Mycobacterium tuberculosis; test: Antimycobacterial activity against Mycobacterium tuberculosis H37Rv infected in mouse J774.A1 cells assessed as log reduction of bacterial growth at 1X to 40X MIC measured after 4 days by visual colony counting analysis; assay type: functional; conditions: time 4 day

For CCOC(=O)c1c(C)[n+]([O-])c2cc(F)c(F)cc2[n+]1[O-], the IC50 (Vero) was 30.6 µM, the MIC [1] was 1 µg/mL (≈ 3.52 µM) and the selectivity ratio at 72 hrs [2] was 8.7.
Compound Cc1c(C(=O)OCc2ccccc2)[n+]([O-])c2cc(F)c(-n3cncn3)cc2[n+]1[O-] has a half-life [3] of 356 min, an IC50 (J774.A1 [4]) of 77.7 µM and an IC50 (Vero) of 123 µM. It also gave an AUC(0-inf) [5] of 10600 ng·h/mL, a Cmax [6] of 1560 ng/mL and an AUC(0-t) at 48 h [7] of 10100 ng·h/mL. The “log(activity)” value [8] was 0.74, the “log(activity)” value [9] was 2.12 and the Activity (J774.A1 [10]) was “Active”. The Activity [11] was “Non-Toxic”, the Activity (J774.A1 [12]) was “inactive” and the Activity (J774.A1 [13]) was “inactive”. For the same compound, the Ratio (J774.A1 [14]) was 0.78, the MIC [1] was 0.125 µg/mL (≈ 0.316 µM) and the Activity (J774.A1 [15]) was “inactive”. The Activity (J774.A1 [16]) was “Active”, the Activity (Cell membrane [17]) was “Active” and the “log(activity)” value [18] was 2.73. The Tmax [19] was 2 h, the “log(activity)” value [20] was 0.1 and the “log(activity)” value [21] was 1.56. It also gave a Ratio (J774.A1 [22]) of 2.59, a Ratio (J774.A1 [23]) of 1.74 and a selectivity ratio at 72 hrs [2] of 328. The Activity (J774.A1 [24]) was “Active”, the MRT inf [25] was 7.38 h and the MRT last at 48 h [26] was 6.04 h. For the same compound, the Activity (Cell membrane [27]) was “Active” and the Ratio (J774.A1 [28]) was 1.92.
With CO[C@H]1/C=C/O[C@@]2(C)Oc3c(C)c(O)c4c(O)c(c(/C=N/N5CCN(C)CC5)c(O)c4c3C2=O)NC(=O)/C(C)=C\C=C\[C@H](C)[C@H](O)[C@@H](C)[C@@H](O)[C@@H](C)[C@H](OC(C)=O)[C@@H]1C [RIFAMPIN] the MIC [1] was 0.0625 µg/mL (≈ 0.0759 µM).
For Cc1c(C(=O)OCc2ccccc2)[n+]([O-])c2cc(F)c(-n3ccnc3)cc2[n+]1[O-], the IC50 (J774.A1 [4]) was 77.7 µM, the IC50 (Vero) was 107 µM and the “log(activity)” value [29] was 0.18. For the same compound, the MIC [1] was 0.25 µg/mL (≈ 0.634 µM), the “log(activity)” value [30] was 0.04 and the “log(activity)” value [31] was 2.15. The selectivity ratio at 72 hrs [2] was 169.
Cc1c(C(=O)CC(C)C)[n+]([O-])c2ccccc2[n+]1[O-] showed an MIC [1] of 64 µg/mL (≈ 246 µM).
Compound CCOC(=O)c1c(C(F)(F)F)[n+]([O-])c2cc(-n3cncn3)c(F)cc2[n+]1[O-] has an IC50 (Vero) of 35.4 µM, an MIC [1] of 0.25 µg/mL (≈ 0.646 µM) and a selectivity ratio at 72 hrs [2] of 54.8.
Work on CC(=O)c1c(C)[n+]([O-])c2cc(N3CCNC(C)C3)c(F)cc2[n+]1[O-] (stereo not drawn) yielded an MIC [1] of 16 µg/mL (≈ 47.9 µM).
Cc1c(C(=O)OC(C)C)[n+]([O-])c2cc(-n3ccnc3)c(-n3ccnc3)cc2[n+]1[O-] showed an MIC [1] of 8 µg/mL (≈ 20.3 µM).
Work on CCCC(=O)c1c(C)[n+]([O-])c2cc(N3CCNCC3)c(F)cc2[n+]1[O-] yielded an MIC [1] of 16 µg/mL (≈ 45.9 µM).
For CCOC(=O)c1c(C)[n+]([O-])c2cc(N3CCN(C)CC3)c(F)cc2[n+]1[O-], the MIC [1] was 8 µg/mL (≈ 22 µM).
In the case of Cc1c(C(=O)OC(C)C)[n+]([O-])c2cc(F)c(F)cc2[n+]1[O-], the MIC [1] is reported as 16 µg/mL (≈ 53.6 µM).
With CCOC(=O)c1c(C)[n+]([O-])c2cc(N3CCNC(C)C3)c(F)cc2[n+]1[O-] (stereo not drawn) the MIC [1] was 8 µg/mL (≈ 22 µM).
Compound CC(=O)c1c(C)[n+]([O-])c2ccccc2[n+]1[O-] [MEQUINDOX] has an MIC [1] of 8 µg/mL (≈ 36.7 µM).
CCCC(=O)c1c(C)[n+]([O-])c2ccccc2[n+]1[O-] gave an MIC [1] of 64 µg/mL (≈ 260 µM).
In the case of Cc1c(C(=O)CC(C)C)[n+]([O-])c2cc(F)c(N3CCNCC3)cc2[n+]1[O-], the MIC [1] is reported as 32 µg/mL (≈ 88.3 µM).
